Laboratory results from patent US9156790B2, “Anticancer P21-activated kinase inhibitors” (Ohio State Innovation Foundation, priority 2013, dated 2015).
Entries after “also recorded” stand apart in the source; their conditions may differ.

Key:
[1] = target: Met (Homo sapiens, UniProt P08581); assay: Kinase profiling panel: Met; assay type: biochemical; settings: 5 μM compound; average of triplicate
Protocol: (§1) To further probe the selectivity of the compounds 4 and 15, they were subjected for kinase profiling service for screening against a panel of other kinases selected based on the kinase tree at 5 μM concentration, at or above the IC50 for the two compounds versus PAK in both in vitro and cell-based assays. […] PAK1 was not available for testing using this system thus it was not possible to compare directly in this assay system.

[2] = target: PAK2 (Homo sapiens, UniProt Q13177); assay: Kinase profiling panel: PAK2; assay type: biochemical; settings: 5 μM compound; average of triplicate
Protocol: as §1

[3] = target: PAK4 (Homo sapiens, UniProt O96013); assay: Kinase profiling panel: PAK4; assay type: biochemical; settings: 5 μM compound; average of triplicate
Protocol: as §1

[4] = tested on: BCPAP cells; assay: Boyden chamber migration assay, BCPAP; assay type: cell-based, Human; settings: 2.5 μM and 5.0 μM, 12 hours, P<0.05 versus DMSO
Protocol: (§2) Cells were grown in media containing 10% FBS. After 24 hours, the medium was aspirated, and media containing 1% FBS was added for 24 hours. The cells were trypsinized for 2 to 5 minutes, washed, and resuspended in media containing 1% FBS. The cell concentration was calculated by hemocytometer. Four hundred μl 1% FBS medium was added into 24-well plates, and a Boyden chamber (8 μm pore) was inserted into each well. Cells were added to each insert, and were allowed to attach in an incubator at 37° C. at 5% CO2 for 2 hours. The cells were then exposed to various concentrations of drugs or control diluent for 3 hours. The inserts were switched to a new well containing media containing 10% FBS, and the chamber was incubated for 12 or 24 hours depending on the migration rate of the cell line. The cells on and under the Boyden chamber membrane were fixed with 3.7% formaldehyde containing 0.05% crystal violet for 15 min after washing cells with PBS. The chambers were washed with distilled water. […] The Q-tips containing the scraped cells and the Boyden chamber containing the non-migrated cells were separately incubated in 80% methanol, shaken at 500 g for 30 minutes, and the extracted dye was measured at 570 nm. Migration was quantified as the ratio of the migrated cells over the total cells (non-migrated plus […]). […]

[5] = target: PKCδ (Homo sapiens, UniProt Q05655); assay: Kinase profiling panel: PKCδ; assay type: biochemical; settings: 5 μM compound; average of triplicate
Protocol: as §1

[6] = tested on: TPC1 cells; assay: MTT cell viability assay, TPC1; assay type: cell-based, Human; settings: Homo sapiens, TPC1, 72-hours of exposure, 1% FBS, mean±standard deviation (n=3), read-out: IC50 for reducing viability of TPC1 cells versus DMSO control
From the text: (§3) Human thyroid cancer BCPAP, TPC1, and FTC133 cell lines were the generous gifts of Drs. Rebecca Schweppe and Bryan Haugen (University of Colorado Denver) (Schweppe et al., The Journal of clinical endocrinology and metabolism 83:4331-4341 (2008)) with permission from the following originating laboratories: BCPAP—Dr. Fabien, Centre Hospitalier Lyon-Sud, France (Fabien et al., Cancer 73:2206-2212 (1994)); TPC1—Dr. Sato, Kanazawa University, Japan (Tanaka et al., Virology 161:62-411 (1987)); and FTC133—Dr. Goretzki, University of Leipzig, Germany (Goretzki et al., Recent Results Cancer Res 118:48-63 (1990)). The obtained cell lines were confirmed for identity by DNA fingerprinting. BCPAP was grown in RPMI 1640 medium (Life Technologies Co., Carlsbad, Calif.) while FTC133 and TPC1 were grown in DMEM (Life Technologies Co.), both supplemented with 10% fetal bovine serum (FBS) and NEAA unless as noted for experiments.
(§4) The effect of OSU-03012 and its derivatives on cell viability was assessed by using the 3-(4,5-dimethylthiazol-2-yl)-2,5-diphenyl-2H-tetrazolium bromide (MTT) assay. Three replicates were performed in each individual experiment, and experiments were repeated at least three separate times. Cells were grown in 96-well plates for 24 hours and were exposed to various concentrations of drugs dissolved in DMSO (final concentration 0.1%) in RPMI 1640 or DMEM containing 1% FBS for 72 hours. 10 μL of 0.5 mg/ml MTT was added to each well and cells were incubated in CO2 at 37° C. for 2 hours. Supernatants were removed from the wells, the reduced MTT dye was solubilized in 100 μL of solution C (12 ml of 1N HCl in 300 mL of isopropanol), and absorbance at 570 nm was determined on a microplate reader.
(§5) We assessed the ability of the compounds to reduce cell viability in vitro by MTT assay after 72 hours of continuous exposure. Results are shown in Table 1 and are depicted as the IC50 vs. simultaneously performed DMSO control.
(§6) ^aThe reported IC50 values are concentrations at which BCPAP, FTC133 and TPC1 cell viability by MTT assays 50% of DMSO control after 72-hours of exposure. Data are presented as mean±standard deviation (n=3). PAK and PDK1 Selectivity In Vivo

[7] = tested on: TPC1 cells; assay: Boyden chamber migration assay, TPC1; assay type: cell-based, Human; settings: 5 μM, 24 hours, P<0.05 versus DMSO
Protocol: as §2

[8] = target: p70S6K (Homo sapiens, UniProt P23443); assay: Kinase profiling panel: p70S6K; assay type: biochemical; settings: 5 μM compound; for % activity vs. DMSO, p70S6K: average of triplicate
Protocol: as §1

[9] = tested on: FTC133 cells; assay: Boyden chamber migration assay, FTC133; assay type: cell-based, Human; settings: 2.5 μM or 5.0 μM, 12 hours
Protocol: as §2

[10] = tested on: FTC133 cells; assay: MTT cell viability assay, FTC133; assay type: cell-based, Human; settings: Homo sapiens, FTC-133, 72-hours of exposure, 1% FBS, mean±standard deviation (n=3), read-out: IC50 for reducing viability of FTC133 cells versus DMSO control
From the text: as §3, §4, §5, §6

Sequence of p70S6K (P23443 whole entry): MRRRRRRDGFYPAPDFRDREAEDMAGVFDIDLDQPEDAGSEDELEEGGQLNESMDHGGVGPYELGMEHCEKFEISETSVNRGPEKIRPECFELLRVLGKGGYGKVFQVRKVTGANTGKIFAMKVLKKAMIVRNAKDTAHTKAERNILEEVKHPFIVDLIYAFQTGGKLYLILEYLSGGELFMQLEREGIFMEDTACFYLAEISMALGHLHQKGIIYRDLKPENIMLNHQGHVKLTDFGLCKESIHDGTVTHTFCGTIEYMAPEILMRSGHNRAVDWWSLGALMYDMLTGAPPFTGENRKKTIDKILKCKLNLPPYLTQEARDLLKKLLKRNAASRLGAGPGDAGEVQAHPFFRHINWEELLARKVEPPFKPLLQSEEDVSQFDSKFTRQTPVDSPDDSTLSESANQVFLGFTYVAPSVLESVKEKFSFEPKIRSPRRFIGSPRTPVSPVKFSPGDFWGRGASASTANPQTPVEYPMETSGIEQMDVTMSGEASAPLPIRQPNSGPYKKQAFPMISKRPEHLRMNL
Sequence of PAK2 (Q13177 whole entry, species assumed): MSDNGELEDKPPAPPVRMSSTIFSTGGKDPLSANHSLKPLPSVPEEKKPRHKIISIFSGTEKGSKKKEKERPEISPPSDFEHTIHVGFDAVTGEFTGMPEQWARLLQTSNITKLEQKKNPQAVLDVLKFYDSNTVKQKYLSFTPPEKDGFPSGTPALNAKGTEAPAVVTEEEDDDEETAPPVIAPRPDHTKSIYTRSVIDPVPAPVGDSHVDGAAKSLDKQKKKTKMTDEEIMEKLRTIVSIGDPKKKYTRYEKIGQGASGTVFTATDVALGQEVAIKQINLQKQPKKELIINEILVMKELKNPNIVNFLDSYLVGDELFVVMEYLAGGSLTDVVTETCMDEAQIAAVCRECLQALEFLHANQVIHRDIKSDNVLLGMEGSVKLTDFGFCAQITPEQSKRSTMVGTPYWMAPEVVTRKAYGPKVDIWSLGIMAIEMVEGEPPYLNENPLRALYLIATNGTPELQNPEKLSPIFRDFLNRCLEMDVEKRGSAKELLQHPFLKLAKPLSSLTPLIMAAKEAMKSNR
Sequence of PKCδ (Q05655 whole entry): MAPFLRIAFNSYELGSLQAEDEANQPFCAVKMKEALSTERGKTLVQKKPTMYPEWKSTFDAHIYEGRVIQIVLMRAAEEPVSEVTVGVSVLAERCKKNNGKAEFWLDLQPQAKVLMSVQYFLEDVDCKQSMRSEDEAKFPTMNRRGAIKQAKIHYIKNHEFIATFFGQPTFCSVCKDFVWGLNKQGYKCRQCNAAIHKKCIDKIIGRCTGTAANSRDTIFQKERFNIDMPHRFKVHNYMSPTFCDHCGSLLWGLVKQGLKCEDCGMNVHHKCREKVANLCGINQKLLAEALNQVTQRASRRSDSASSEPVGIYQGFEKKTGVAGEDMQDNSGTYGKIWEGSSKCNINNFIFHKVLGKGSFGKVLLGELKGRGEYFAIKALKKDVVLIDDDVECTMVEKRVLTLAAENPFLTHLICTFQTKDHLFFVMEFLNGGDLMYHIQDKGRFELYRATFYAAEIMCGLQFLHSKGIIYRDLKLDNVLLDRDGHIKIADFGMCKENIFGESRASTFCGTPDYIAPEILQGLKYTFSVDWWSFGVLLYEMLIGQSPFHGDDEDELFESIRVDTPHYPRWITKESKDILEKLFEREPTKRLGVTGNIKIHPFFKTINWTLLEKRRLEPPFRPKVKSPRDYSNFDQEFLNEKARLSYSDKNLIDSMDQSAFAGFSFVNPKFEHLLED
Sequence of Met (P08581 25-1390): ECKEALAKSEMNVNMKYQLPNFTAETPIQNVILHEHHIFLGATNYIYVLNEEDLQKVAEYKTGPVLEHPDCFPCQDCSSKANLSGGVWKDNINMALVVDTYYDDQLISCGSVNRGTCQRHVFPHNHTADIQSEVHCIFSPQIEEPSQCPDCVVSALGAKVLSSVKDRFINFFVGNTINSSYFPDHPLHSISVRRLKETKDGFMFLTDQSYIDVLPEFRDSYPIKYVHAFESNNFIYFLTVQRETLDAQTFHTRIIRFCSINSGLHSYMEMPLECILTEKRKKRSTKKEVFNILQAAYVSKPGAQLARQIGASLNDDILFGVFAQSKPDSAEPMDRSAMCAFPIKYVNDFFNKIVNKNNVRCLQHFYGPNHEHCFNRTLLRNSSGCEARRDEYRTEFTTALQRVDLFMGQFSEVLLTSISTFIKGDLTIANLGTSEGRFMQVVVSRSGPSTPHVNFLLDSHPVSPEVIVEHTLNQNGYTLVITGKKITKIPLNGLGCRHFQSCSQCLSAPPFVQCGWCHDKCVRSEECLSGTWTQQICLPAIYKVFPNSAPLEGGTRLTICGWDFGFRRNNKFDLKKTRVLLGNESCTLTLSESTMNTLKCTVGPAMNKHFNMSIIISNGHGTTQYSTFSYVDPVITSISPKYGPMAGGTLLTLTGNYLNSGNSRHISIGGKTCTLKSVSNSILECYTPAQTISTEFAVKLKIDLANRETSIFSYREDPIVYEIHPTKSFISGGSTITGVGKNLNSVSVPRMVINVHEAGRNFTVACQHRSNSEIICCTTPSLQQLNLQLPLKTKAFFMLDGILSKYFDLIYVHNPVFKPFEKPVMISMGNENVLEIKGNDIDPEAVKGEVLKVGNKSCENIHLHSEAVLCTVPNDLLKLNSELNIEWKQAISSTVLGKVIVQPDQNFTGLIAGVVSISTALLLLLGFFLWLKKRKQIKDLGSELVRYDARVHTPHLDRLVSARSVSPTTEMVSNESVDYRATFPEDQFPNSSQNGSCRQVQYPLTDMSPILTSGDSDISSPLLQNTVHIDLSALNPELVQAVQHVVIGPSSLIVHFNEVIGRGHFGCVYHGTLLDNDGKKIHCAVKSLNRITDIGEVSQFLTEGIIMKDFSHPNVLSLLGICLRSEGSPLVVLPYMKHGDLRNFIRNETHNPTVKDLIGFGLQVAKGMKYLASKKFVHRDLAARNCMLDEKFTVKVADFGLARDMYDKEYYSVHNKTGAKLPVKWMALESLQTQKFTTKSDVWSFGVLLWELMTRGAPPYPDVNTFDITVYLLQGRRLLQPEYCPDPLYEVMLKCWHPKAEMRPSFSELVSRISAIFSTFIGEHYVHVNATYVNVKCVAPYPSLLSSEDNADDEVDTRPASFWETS
Sequence of PAK4 (O96013 whole entry, species assumed): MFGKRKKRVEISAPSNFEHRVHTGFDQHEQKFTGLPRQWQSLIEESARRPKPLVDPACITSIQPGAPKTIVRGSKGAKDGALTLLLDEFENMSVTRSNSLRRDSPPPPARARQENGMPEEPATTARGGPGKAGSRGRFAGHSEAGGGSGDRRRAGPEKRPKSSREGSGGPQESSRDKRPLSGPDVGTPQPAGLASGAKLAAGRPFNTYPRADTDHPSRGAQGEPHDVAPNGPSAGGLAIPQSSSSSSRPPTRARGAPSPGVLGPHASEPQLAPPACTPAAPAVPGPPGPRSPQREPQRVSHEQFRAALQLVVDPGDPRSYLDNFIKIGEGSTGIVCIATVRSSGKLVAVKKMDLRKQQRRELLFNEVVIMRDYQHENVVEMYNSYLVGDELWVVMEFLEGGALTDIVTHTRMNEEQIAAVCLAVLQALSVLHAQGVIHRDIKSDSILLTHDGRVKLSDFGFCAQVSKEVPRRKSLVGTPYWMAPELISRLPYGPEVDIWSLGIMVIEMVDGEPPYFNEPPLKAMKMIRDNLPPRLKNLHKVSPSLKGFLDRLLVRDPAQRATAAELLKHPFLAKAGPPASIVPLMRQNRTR

NCCC(=O)Nc1ccc(-n2nc(C(F)(F)F)cc2-c2ccc3ccc4ccccc4c3c2)cc1 [Compound 4, 3-amino-N-(4-(5-(phenanthren-3-yl)-3-(trifluoromethyl)-1H-pyrazol-1-yl)phenyl)-propanamide]
% activity vs. DMSO, Met [1]: 89%
% activity vs. DMSO, PAK2 [2]: 70%
% activity vs. DMSO, PAK4 [3]: 101%
Migration of BCPAP cells [4]: inhibited migration
% activity vs. DMSO, PKCδ [5]: 85%
IC50 [6]: 1.68 ± 0.32 µM
Migration of TPC1 cells [7]: decreased cell motility; also recorded: inhibited migration
inhibition at 5 µM [8]: > 50%
% activity vs. DMSO, p70S6K [8]: 28%
Migration of FTC133 cells [9]: not inhibited; also recorded: neither compound significantly inhibited migration
IC50 [10]: 2.68 ± 2.08 µM

CC(C)NC(=O)c1cc(-c2ccc3ccc4ccccc4c3c2)n(-c2ccc(NC(=O)CN)cc2)n1 [Compound 15, 1-(4-(2-Aminoacetamido)phenyl)-N-isopropyl-5-(phenanthren-3-yl)-1H-pyrazole-3-carboxamide]
% activity vs. DMSO, Met [1]: 77%
% activity vs. DMSO, PAK2 [2]: 81%
% activity vs. DMSO, PAK4 [3]: 105%
Migration of BCPAP cells [4]: inhibited migration
% activity vs. DMSO, PKCδ [5]: 110%
IC50 [6]: 2.66 ± 1.05 µM
Migration of TPC1 cells [7]: decreased cell motility; also recorded: inhibited migration
inhibition at 5 µM [8]: > 50%
% activity vs. DMSO, p70S6K [8]: 38%
Migration of FTC133 cells [9]: not inhibited; also recorded: neither compound significantly inhibited migration
IC50 [10]: 3.37 ± 3.31 µM
